Data published in patent US20070037833A1, “Compositions and methods for inhibiting neurodegeneration” (priority 2005, published 2007).
“And” between values parts separate entries of the source, which are not always exact repeats. Identical values can stand only once. “Also recorded” adds a separate entry of the source.

Experiments:
Trk = experiment: Immunoblot for phosphoTrk in spinal cord cultures; assay type: cell-based, rat
Experimental: (§1) Cells were lysed in 1% NP-40 lysis buffers containing protease inhibitors, subjected to SDS-PAGE and immunoblotted as previously described (Fryer et al., 1999; Fryer et al., 2000). For immunoprecipitation, lysates from 60 mm dishes were pre-cleared by incubation with protein A beads (Santa Cruz), incubated with primary antibody (4 μg/ml)×2 hours then 50 μL of beads added and incubated overnight with gentle agitation at 4° C. Beads were pelleted, washed 5× with 10 mM Tris pH 7.4+0.5 mM EGTA+0.5 mM EDTA+0.1% NP40 before elution in 1× Laemelli sample buffer. Antibody sources: BD Transduction Labs—TrkB and MAP Kinase used at 1:500, Cell Signaling—Akt 1:1000; phosphoTrk (tyr490) 1:1000; phospho p42/44 MAP Kinase (thr 202/tyr204) 1:1000; phosphoAkt (ser473) 1:500; IGFI antibody (tyr 1131) 1:500. Upstate—adenosine A2a 1:1000. Sigma—actin 1:200. Biosource—active src (clone 28) 1:200.
(§2) We next asked about the effect of the adenosine A2 receptor antagonism on Trk signaling. Cultures of spinal cord cells (grown in the presence of a cocktail of trophic factors including 10 ng/ml BDNF) received KW6002 (1 μM), MRS1754 (50 nM) or vehicle (DMSO 0.1%) and 24 hrs. later, lysates were prepared for immunoblots for Trk and the MAP kinase downstream signaling module (FIG. 2, panel a). Immunoblots for phosphoTrk and phosphoMAPK were employed to monitor the state of activation of these proteins.
(§3) We followed up these observations by determining the effect of enprofylline on Trk signaling and determined the extent to which the resultant biochemical changes mimic the effects of direct pharmacological Trk antagonism with CEP4416. […] The effect of drug treatment on AKT was particularly marked. […] To determine the specificity of these agents, we examined their effect on Insulin-like growth factor 1 (IGF1) signaling through the IGF receptor tyrosine kinase (IGFR). […] It is unlikely that phosphodiesterase activity of enprofylline can explain these observations as increased cAMP levels enhance, not suppress, TrkB activation (Boulanger and Poo, 1999; Ji et al., 2005).

[1] = tested on: motor neurons in embryonic rat spinal cord cultures; experiment: Excitotoxicity assay (100 μM kainic acid) in mixed spinal cord cultures; assay type: cell-based
Experimental: Unless otherwise specified, BDNF was added to all cultures.
Many previous in vitro investigations have identified motor neurons in mixed spinal cord cell culture by immunostaining for non-phosphorylated neurofilaments (or peripherin) and restricting analysis to cells with a soma diameter of 25 μm or greater (Carriedo et al., 2000; Hu and Kalb, 2003). We wanted to confirm the validity of this approach using an independent method for determining whether a given cell is a motor neuron. To specifically identify motor neurons in our cultures we purified these cells by metrizamide gradient and immunopanning techniques (Henderson et al., 1993; Fryer et al., 1999), live-labeled them with CM-DiI, and added these fluorescently-tagged, bona fide motor neurons to mixed cell cultures at the time of initial plating. All CM-DiI labeled cells stained for motor neurons markers such as non-phosphorylated neurofilament H (using antibody, SMI-32), peripherin, choline acetyl transferase (ChAT) and islet ½ (FIG. 1, panel a.). We then subjected spinal cord cultures to an excitotoxic insult and determined motor neuron survival using multiple methods for identifying motor neurons. […] Since all SMI-32 (+) cells with cell body diameter of 25 μm or greater were CM-DiI (+) and all CM-DiI (+) cells were SMI-32 (+), for the remainder of the studies herein, we could confidently study motor neuron death in vitro by counting SMI-32 (+) cells with a cell body diameter of 25 μm or greater.

MAP kinase = experiment: Immunoblot for phosphoMAPK in spinal cord cultures; assay type: cell-based, rat
Experimental: as §1, §2, §3

[2] = tested on: motor neurons expressing G59S p150^glued; experiment: Motor neuron death from HSV-expressed mutant p150glued in spinal cord cultures; assay type: cell-based, rat; details: 6 days post-infection; treatment daily or every other day
Source text: Various cDNAs were cloned into the PrpUC amplicon plasmid and were used to generate recombinant HSV as previously described (Neve et al., 1997). The titer of viruses used in these studies were routinely 3-5×10^7 plaque-forming units/ml. The cDNA for wild type/mutant SOD and wild type/mutant p150^glued were gifts of D. Borchelt and E. Holzbaur, respectively. The K295R mutant version of chick src was a gift of J. Brugge.
Mutations in superoxide dismutase (SOD) or the p150^glued subunit of dynactin are known to account for a familial form of ALS in a subpopulation of individuals (Rosen, 1993; Puls et al., 2003; Bruijn et al., 2004). We inquired whether expression the mutant forms of SOD or p150^glued caused motor neuron death in vitro and if Trk antagonism was neuroprotective. Recombinant herpes simplex viruses (HSVs) were generated that expressed wild type or mutant form of SOD (G85R) and wild type or mutant p150^glued (G59S). […] Spinal cord cultures were infected with virus at 14 DIV and the number of motor neurons was determined 2, 4, 6 or 8 days later (FIG. 4, panel a.).
We next determined if KW6002 could protect motor neurons from the toxic effects of mutant proteins. Spinal cord cultures were infected with viruses expressing wild type or mutant versions of SOD or p150^glued at 14 DIV, then treated with drug or vehicle for 4 days (FIG. 4, panel b.). […]

[3] = 6 hours post drug administration
[4] = 48 hours post drug administration

CCCn1c(=O)[nH]c(=O)c2[nH]cnc21 [enprofylline, 3-propylxanthine]
abundance of phosphoTrk (Trk; 6, 24 or 48 hours, 100 μM enprofylline, 30 nM CEP-4416): decrease in the abundance of phosphoTrk at all time points
phosphorylation of Trk (Trk; [3]): decreases in the phosphorylation of Trk, MAP kinase and Akt
abundance of phosphoTrk (Trk; 24 hours treatment): robust reduction in phosphoTrk, phosphoMAPK and phosphoAKT
abundance of phosphoTrk (Trk; [4]): decrease in phosphoTrk could still be detected
% motor neuron death, short term (acute) treatment ([1]; drug added 30 minutes prior to excitotoxic challenge, counted 24 hours later): ~40% and 46±4%
excitotoxic motor neuron death ([1]; drug for 4 days (added 4 and 2 days) prior to 100 μM kainic acid 1 h, SMI-32(+) motor neurons counted 24 h later): completely blocked the loss of SMI(+) neurons; also recorded: no excitotoxic motor neuron death
abundance of phosphoMAPK (MAP kinase; 6 and 24 hours, 100 μM enprofylline, 30 nM CEP-4416): decrease in the abundance of phosphoAKT and phosphoMAPK at 6 and 24 hours
phosphorylation of MAP kinase (MAP kinase; [3]): decreases in the phosphorylation of Trk, MAP kinase and Akt
abundance of phosphoMAPK (MAP kinase; 24 hours treatment): robust reduction in phosphoTrk, phosphoMAPK and phosphoAKT
phosphorylation of MAPK (MAP kinase; [4]): largely returned to baseline
motor neuron survival / toxicity of G59S p150glued [2]: significantly greater number of motor neurons; also recorded: completely prevented the toxicity of mutant protein expression
